According to ChEMBL document CHEMBL1201862, “PubChem BioAssay data set” (2004):
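A five-concentration, 48-hour dose response in 96-well plates underlies each endpoint, interpolated linearly between surrounding concentrations. GI50 = concentration required for 50% inhibition of growth.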 The source made the active and inactive calls. Cut-off read from the data, not from the text of the source: active = GI50 up to about 1.1 µM and inactive = higher.

How the values were obtained:
Assay in all cases: NCI-60 cell line screen, 48 h
MCF7 = system: MCF7
U-251 = system: U-251
HOP-92 = system: HOP-92
Hs-578T = system: Hs-578T
OVCAR-4 = system: OVCAR-4
A498 = system: A498
UO-31 = system: UO-31
DU-145 = system: DU-145
RXF 393 = system: RXF 393
SF-539 = system: SF-539
SK-MEL-2 = system: SK-MEL-2
T47D = system: T47D
TK-10 = system: TK-10
CCRF-CEM = system: CCRF-CEM
ACHN = system: ACHN
PC-3 = system: PC-3
A549 = system: A549
HOP-62 = system: HOP-62
LOX IMVI = system: LOX IMVI

SMILES | GI50 (MCF7) | GI50 (U-251) | GI50 (HOP-92) | GI50 (Hs-578T) | GI50 (OVCAR-4) | GI50 (A498) | GI50 (UO-31) | GI50 (DU-145) | GI50 (RXF 393) | GI50 (SF-539) | GI50 (SK-MEL-2) | GI50 (T47D) | GI50 (TK-10) | GI50 (CCRF-CEM) | GI50 (ACHN) | GI50 (PC-3) | GI50 (A549) | GI50 (HOP-62) | GI50 (LOX IMVI)
COC(=O)c1c(O)ccc2[nH]c3c(O)c4ccccc4cc3c12 | 16 µM (inactive) | 36.5 µM (inactive) | 29.6 µM (inactive) | 23.7 µM (inactive) | 25.5 µM (inactive) | 41.4 µM (inactive) | 26.8 µM (inactive) | 20 µM (inactive) | 31.3 µM (inactive) | 21.4 µM (inactive) | 32.4 µM (inactive) | 15.1 µM (inactive) | 34.2 µM (inactive) | 20.8 µM (inactive) | 27.9 µM (inactive) | 30.4 µM (inactive) | 32.2 µM (inactive) | 22.4 µM (inactive) | 
c1ccc2nc3c(nc2c1)sc1nc2ccccc2n13 | 0.933 µM (active) | > 100 µM (inactive) | 57 µM (inactive) | > 100 µM (inactive) |  | 26.1 µM (inactive) | > 100 µM (inactive) | > 100 µM (inactive) | 28.4 µM (inactive) | > 100 µM (inactive) |  | 8 µM (inactive) | > 100 µM (inactive) | > 100 µM (inactive) | 92 µM (inactive) | > 100 µM (inactive) | > 100 µM (inactive) |  | > 100 µM (inactive)
CC1C2CC(CC2N)C1(C)C (configuration not stated) | > 100 µM (inactive) | > 100 µM (inactive) | > 100 µM (inactive) | > 100 µM (inactive) | > 100 µM (inactive) | > 100 µM (inactive) | > 100 µM (inactive) | > 100 µM (inactive) |  | > 100 µM (inactive) |  | > 100 µM (inactive) | > 100 µM (inactive) | > 100 µM (inactive) | > 100 µM (inactive) | > 100 µM (inactive) | > 100 µM (inactive) | > 100 µM (inactive) | 
CCOC(=O)C1(C/C=C/CBr)Cc2ccccc2C1=O (configuration not stated) | 2.48 µM (inactive) | 3.58 µM (inactive) |  | 5.53 µM (inactive) | 2.03 µM (inactive) | 17.9 µM (inactive) | 1.96 µM (inactive) | 3.38 µM (inactive) | 1.55 µM (inactive) | 1.81 µM (inactive) | 2.25 µM (inactive) | 1.98 µM (inactive) | 2.77 µM (inactive) | 0.796 µM (active) | 2.43 µM (inactive) | 4.13 µM (inactive) | 10.5 µM (inactive) | 4.03 µM (inactive) | 1.6 µM (inactive)
C[C@H](Nc1nc(N)c(N=O)c(=O)n1C)C(=O)O | > 10 µM (inactive) | > 10 µM (inactive) | > 10 µM (inactive) | > 10 µM (inactive) | > 10 µM (inactive) | > 10 µM (inactive) |  | > 10 µM (inactive) | > 10 µM (inactive) | > 10 µM (inactive) | > 10 µM (inactive) | > 10 µM (inactive) | > 10 µM (inactive) | > 10 µM (inactive) | > 10 µM (inactive) | > 10 µM (inactive) | > 10 µM (inactive) | > 10 µM (inactive) | > 10 µM (inactive)
CC(=O)OC[C@]1(C(=O)C(O)c2ccoc2)[C@H](C)CC[C@@]23COC(=O)C2=CCC[C@@H]31 (some centres not stated) | > 10 µM (inactive) | > 10 µM (inactive) | > 10 µM (inactive) | > 10 µM (inactive) | > 10 µM (inactive) | > 10 µM (inactive) | > 10 µM (inactive) | > 10 µM (inactive) | > 10 µM (inactive) | > 10 µM (inactive) | > 10 µM (inactive) | > 10 µM (inactive) | > 10 µM (inactive) | > 10 µM (inactive) | > 10 µM (inactive) | > 10 µM (inactive) | > 10 µM (inactive) |  | > 10 µM (inactive)
O=C(O)Cc1ccc2nc(COC(=O)c3ccccc3)sc2c1 | > 100 µM (inactive) | > 100 µM (inactive) | > 100 µM (inactive) | > 100 µM (inactive) | > 100 µM (inactive) | > 100 µM (inactive) | > 100 µM (inactive) | > 100 µM (inactive) | > 100 µM (inactive) |  | > 100 µM (inactive) | > 100 µM (inactive) | > 100 µM (inactive) | < 0.01 µM (active) | > 100 µM (inactive) | > 100 µM (inactive) | > 100 µM (inactive) | > 100 µM (inactive) | > 100 µM (inactive)
CCOC(=O)c1c(O)cn2c1[nH]c1cccc3cccc2c31 | 49.2 µM (inactive) | 63.4 µM (inactive) | 51.4 µM (inactive) | > 100 µM (inactive) | > 100 µM (inactive) | > 100 µM (inactive) | 69.2 µM (inactive) | 71.6 µM (inactive) | 41.5 µM (inactive) |  | > 100 µM (inactive) | 50.8 µM (inactive) | > 100 µM (inactive) | 32.6 µM (inactive) | 52.4 µM (inactive) | > 100 µM (inactive) | > 100 µM (inactive) | 35.6 µM (inactive) | 46.9 µM (inactive)
O=c1c2sc3ccccc3sc=2c(=O)c2c(Cl)c(Cl)c(Cl)c(Cl)c12 | > 100 µM (inactive) | > 100 µM (inactive) |  | 38.4 µM (inactive) | > 100 µM (inactive) | > 100 µM (inactive) | > 100 µM (inactive) | > 100 µM (inactive) | > 100 µM (inactive) |  | > 100 µM (inactive) | > 100 µM (inactive) | > 100 µM (inactive) | > 100 µM (inactive) | > 100 µM (inactive) | > 100 µM (inactive) | > 100 µM (inactive) | > 100 µM (inactive) | 
O=C(N/N=C\c1cccc2ccccc12)Nc1cccc2ccccc12 | 7.8 µM (inactive) | 11.4 µM (inactive) |  | 43 µM (inactive) | > 10 µM (inactive) | 15.7 µM (inactive) | 76.9 µM (inactive) | > 100 µM (inactive) | 14.1 µM (inactive) | 10.7 µM (inactive) | 28.8 µM (inactive) | 65.9 µM (inactive) | 19.9 µM (inactive) | 18.2 µM (inactive) | 23.2 µM (inactive) | 26.9 µM (inactive) | 44.1 µM (inactive) | 7.11 µM (inactive) | 22.9 µM (inactive)
O=C(CCCN1CCC2(CC1)/C(=N/C1CCCCC1)NC(=O)N2c1ccccc1)c1ccc(F)cc1 | 14.1 µM (inactive) | 33.1 µM (inactive) | 17.1 µM (inactive) | 33.4 µM (inactive) | 31.7 µM (inactive) | 15.2 µM (inactive) |  | 41.2 µM (inactive) | 39.5 µM (inactive) | 18.8 µM (inactive) | 17.7 µM (inactive) | 29.9 µM (inactive) | 22.5 µM (inactive) | 23.4 µM (inactive) | 31.7 µM (inactive) | 21.6 µM (inactive) | 44.4 µM (inactive) | 20.9 µM (inactive) | 14.2 µM (inactive)
O=C1C(c2c(O)[nH]c3ccc([N+](=O)[O-])cc23)=Nc2ccccc21 | 57.1 µM (inactive) | 21.2 µM (inactive) | > 100 µM (inactive) | 56.9 µM (inactive) | > 100 µM (inactive) | 98.2 µM (inactive) | > 100 µM (inactive) | > 100 µM (inactive) | 13 µM (inactive) |  | 43.5 µM (inactive) | > 100 µM (inactive) | 34.6 µM (inactive) | > 100 µM (inactive) | 40.5 µM (inactive) | 83.6 µM (inactive) | > 100 µM (inactive) | 87.5 µM (inactive) | > 100 µM (inactive)
COc1ccc(C(c2cc(OC)c(OC)c(OC)c2)N2C(=O)CCC2C(=O)O)cc1 (configuration not stated) | 62.4 µM (inactive) | 38.3 µM (inactive) | > 100 µM (inactive) | 62.1 µM (inactive) | > 100 µM (inactive) | 77.1 µM (inactive) | 56.4 µM (inactive) | > 100 µM (inactive) |  | 21.2 µM (inactive) | 46.8 µM (inactive) | 47.2 µM (inactive) | > 100 µM (inactive) | 38.8 µM (inactive) | 89.3 µM (inactive) | 46 µM (inactive) | 40.2 µM (inactive) | > 100 µM (inactive) | 66.8 µM (inactive)
O=C(CC(c1ccccc1)C1C(=O)NC(=S)NC1=O)c1ccc([N+](=O)[O-])cc1 (configuration not stated) | 17.7 µM (inactive) | > 100 µM (inactive) | > 100 µM (inactive) | > 100 µM (inactive) | > 100 µM (inactive) | > 100 µM (inactive) | > 100 µM (inactive) | > 100 µM (inactive) |  | > 100 µM (inactive) | > 100 µM (inactive) | 17.8 µM (inactive) | > 100 µM (inactive) | > 100 µM (inactive) | > 100 µM (inactive) | > 100 µM (inactive) | > 100 µM (inactive) | > 100 µM (inactive) | 63.4 µM (inactive)
Cc1ccc2[nH]c3c(c2c1)C1CCC(C(C)(C)C)CC1C1C(=O)N(c2ccc(Oc4ccccc4)cc2)C(=O)C31 (configuration not stated) | 56.9 µM (inactive) | 5.61 µM (inactive) | 14.4 µM (inactive) | 2.81 µM (inactive) | 14.2 µM (inactive) | 9.57 µM (inactive) | 41 µM (inactive) | > 95.3 µM (inactive) | 7.55 µM (inactive) |  | 34.9 µM (inactive) | 16.2 µM (inactive) | 20 µM (inactive) | 2.63 µM (inactive) | 22.6 µM (inactive) | 67.9 µM (inactive) | 16.3 µM (inactive) | 22.4 µM (inactive) | 24.2 µM (inactive)
CS(=O)(=O)c1ccc(/N=C/C=C/Nc2ccc(S(C)(=O)=O)cc2)cc1 | > 100 µM (inactive) | > 100 µM (inactive) | > 100 µM (inactive) | > 100 µM (inactive) | > 100 µM (inactive) | > 100 µM (inactive) | > 100 µM (inactive) | > 100 µM (inactive) | > 100 µM (inactive) | > 100 µM (inactive) | > 100 µM (inactive) | > 100 µM (inactive) | > 100 µM (inactive) | > 100 µM (inactive) | > 100 µM (inactive) | > 100 µM (inactive) | > 100 µM (inactive) | > 100 µM (inactive) | 
